Like-named read-outs stand apart in the source and are kept apart here.
Columns and labels:
Type in all cases: cell-based
HIV strain A = experiment: Antiviral spectrum, clinically isolated mutant strain A; settings: FR=EC50(mutant strain)/EC50(HIV-1 strain LAI)
Method: (§1) HIV- or mock-infected MT4 cells were incubated for five days in the presence of various concentrations of the inhibitor. At the end of the incubation period, all HIV-infected cells have been killed by the replicating virus in the control cultures in the absence of any inhibitor. Cell viability is measured by measuring the concentration of MTT, a yellow, water soluble tetrazolium dye that is converted to a purple, water insoluble formazan in the mitochondria of living cells only. Upon solubilization of the resulting formazan crystals with isopropanol, the absorbance of the solution is monitored at 540 nm. The values correlate directly to the number of living cells remaining in the culture at the completion of the five day incubation. The inhibitory activity of the compound was monitored on the virus-infected cells and was expressed as EC50 and EC90. These values represent the amount of the compound required to protect 50% and 90%, respectively, of the cells from the cytopathogenic effect of the virus. The toxicity of the compound was measured on the mock-infected cells and was expressed as CC50, which represents the concentration of compound required to inhibit the growth of the cells by 50%. The selectivity index (SI) (ratio CC50/EC50) is an indication of the selectivity of the anti-HIV activity of the inhibitor. Wherever results are reported as e.g. pEC50 or pCC50 values, the result is expressed as the negative logarithm of the result expressed as EC50 or CC50 respectively.
(§2) Because of the increasing emergence of drug resistant HIV strains, the present compounds were tested for their potency against clinically isolated HIV strains harboring several mutations (Table 2 and 3). These mutations are associated with resistance to protease inhibitors and result in viruses that show various degrees of phenotypic cross-resistance to the currently commercially available drugs such as for instance saquinavir, ritonavir, nelfinavir, indinavir and amprenavir.
(§3) As a measure of the broad spectrum activity of the present compounds, the fold resistance (FR), defined as FR=EC50(mutant strain)/EC50(HIV-1 strain LAI), was determined.

HIV strain F = experiment: Antiviral spectrum, clinically isolated mutant strain F; settings: FR=EC50(mutant strain)/EC50(HIV-1 strain LAI)
Method: as §1, §2, §3

HIV strain B = experiment: Antiviral spectrum, clinically isolated mutant strain B; settings: FR=EC50(mutant strain)/EC50(HIV-1 strain LAI)
Method: as §1, §2, §3

HIV strain C = experiment: Antiviral spectrum, clinically isolated mutant strain C; settings: FR=EC50(mutant strain)/EC50(HIV-1 strain LAI)
Method: as §1, §2, §3

HIV strain E = experiment: Antiviral spectrum, clinically isolated mutant strain E; settings: FR=EC50(mutant strain)/EC50(HIV-1 strain LAI)
Method: as §1, §2, §3

HIV strain D = experiment: Antiviral spectrum, clinically isolated mutant strain D; settings: FR=EC50(mutant strain)/EC50(HIV-1 strain LAI)
Method: as §1, §2, §3

[1] = Toxicity on mock-infected MT4 cells (MTT); settings: human
Method: as §1, §3

HIV-1 strain LAI = experiment: Cellular anti-HIV assay, MT4 cells, MTT read-out, wild type strain
Method: as §1, with “The compounds of the present invention were examined for anti-viral activity in a cellular assay. […] The cellular assay was performed according to the following procedure. HIV- or” for “HIV- or”

[2] = Human immunodeficiency virus 1, MT4, Table 3, wild type HIV-LAI strain, read-out: WT (pEC50) (converted)
[3] = Human immunodeficiency virus 1, 120 h, Table 1, MT4 cells, five days incubation, HIV-1 strain LAI, read-out: pEC50 (converted)

Row | Structure (SMILES) | A (FR towards mutant A) (HIV strain A) | F (FR towards mutant F) (HIV strain F) | B (FR towards mutant B) (HIV strain B) | C (FR towards mutant C) (HIV strain C) | E (FR towards mutant E) (HIV strain E) | D (FR towards mutant D) (HIV strain D) | CC50 at 5 days [1] [nM] | EC50 (HIV-1 strain LAI; [2]) [nM] | EC50 (HIV-1 strain LAI; [3]) [nM] | EC50 (HIV-1 strain LAI; Human immunodeficiency virus 1, MT4, read-out: WT (pEC50) (converted)) [nM]
1 | CC(C)CN(C[C@@H](O)[C@H](Cc1ccccc1)NC(=O)OC1COC2OCCC12)S(=O)(=O)c1ccc2c(c1)CC(=O)N2 (stereo in doubt) [Compound 21, Hexahydrofuro[2,3-b]furan-3-yl N-(1-benzyl-2-hydroxy-3-{isobutyl[(2-oxo-2,3-dihydro-1H-indol-5-yl)sulfonyl]amino}propyl}carbamate] | 1.0 | 1.2 | 1.1 | 0.7 | 0.56 | 0.33 | 100000 | 158 |  | 
2 | CC(C)CN(CC(O)C(Cc1ccccc1)NC(=O)OC1COC2OCCC12)S(=O)(=O)c1ccc2c(c1)C(=Cc1ccc[nH]1)C(=O)N2 (stereo not shown) [Compound 1, (1-Benzyl-2-hydroxy-3-{isobutyl-[2-oxo-3-(1H-pyrrol-2-ylmethylene)-2,3-dihydro-1H-indole-5-sulfonyl]-amino}-propyl)-carbamic acid hexahydrofuro[2,3-b]furan-3-yl ester] | 4.3 | 10 | 8.7 | 2.1 | 6.2 | 2.0 | 12600 | 3.16 | 3.16 | 
3 | Cc1ccc(C=C2C(=O)Nc3ccc(S(=O)(=O)N(CC(C)C)CC(O)C(Cc4ccccc4)NC(=O)OC4COC5OCCC45)cc32)o1 (stereo not shown) [Compound 2, (1-Benzyl-2-hydroxy-3-{isobutyl-[3-(5-methyl-furan-2-ylmethylene)-2-oxo-2,3-dihydro-1H-indole-5-sulfonyl]-amino}-propyl)-carbamic acid hexahydro-furo[2,3-b]furan-3-yl ester] | 1.7 | 3.9 | 3.6 | 1 | 3.1 | 3.8 | 20000 |  | 8.51 | 9.77
4 | Cc1ccc(C=C2C(=O)Nc3ccc(S(=O)(=O)N(CC(C)C)CC(O)C(Cc4ccccc4)NC(=O)OC4COC5OCCC45)cc32)s1 (stereo not shown) [Compound 3, (1-Benzyl-2-hydroxy-3-{isobutyl-[3-(5-methyl-thiophen-2-ylmethylene)-2-oxo-2,3-dihydro-1H-indole-5-sulfonyl]-amino}-propyl)-carbamic acid hexahydro-furo[2,3-b]furan-3-yl ester] | 3.0 | 6.8 | 3.8 | 2.6 | 7.1 | 3.0 | 100000 | 12.6 | 11.5 | 
5 | CC(C)CN(CC(O)C(Cc1ccccc1)NC(=O)OC1COC2OCCC12)S(=O)(=O)c1ccc2c(c1)C(=Cc1cccn1C)C(=O)N2 (stereo not shown) [Compound 4, (1-Benzyl-2-hydroxy-3-{isobutyl-[3-(1-methyl-1H-pyrrol-2-ylmethylene)-2-oxo-2,3-dihydro-1H-indole-5-sulfonyl]-amino}-propyl)-carbamic acid hexahydro-furo[2,3-b]furan-3-yl ester] | 2.3 | 2.0 | 1.9 | 1.7 | 2.4 | 1.9 | 100000 | 15.8 | 15.5 | 
6 | CCC(C=C1C(=O)Nc2ccc(S(=O)(=O)N(CC(C)C)CC(O)C(Cc3ccccc3)NC(=O)OC3COC4OCCC34)cc21)CC (stereo not shown) [Compound 5, (1-Benzyl-3-{[3-(2-ethyl-butylidene)-2-oxo-2,3-dihydro-1H-indole-5-sulfonyl]-isobutyl-amino}-2-hydroxy-propyl)-carbamic acid hexahydro-furo[2,3-b]furan-3-yl ester] | 1.9 | 6.5 | 8.3 | 2.0 | 4.2 | 2.0 | 63100 | 15.8 | 16.6 | 
7 | CC(C)C=C1C(=O)Nc2ccc(S(=O)(=O)N(CC(C)C)CC(O)C(Cc3ccccc3)NC(=O)OC3COC4OCCC34)cc21 (stereo not shown) [Compound 6, {1-Benzyl-2-hydroxy-3-[isobutyl-(3-isobutylidene-2-oxo-2,3-dihydro-1H-indole-5-sulfonyl)-amino]-propyl}-carbamic acid hexahydro-furo[2,3-b]furan-3-yl ester] | 2.5 | 7.9 | 7.1 | 1.6 | 2.0 | 1.4 | 50100 | 20 | 19.5 | 
8 | CC(C)CN(CC(O)C(Cc1ccccc1)NC(=O)OC1COC2OCCC12)S(=O)(=O)c1ccc2c(c1)/C(=C\c1ccco1)C(=O)N2 (stereo not shown) [Compound 7, Hexahydrofuro[2,3-b]furan-3-yl N-{1-benzyl-3-[({3-[(E)-2-furylmethylidene]-2-oxo-2,3-dihydro-1H-indol-5-yl}sulfonyl) (isobutyl)amino]-2-hydroxypropyl}carbamate] | 1.8 | 1.9 | 2.6 | 1.7 | 5.9 | 2.4 | 79400 | 20 | 19.5 | 
9 | Cc1ccc(C=C2C(=O)Nc3ccc(S(=O)(=O)N(CC(C)C)CC(OP(=O)(O)O)C(Cc4ccccc4)NC(=O)OC4COC5OCCC45)cc32)o1 (stereo not shown) [Compound 19, (1-Benzyl-3-{isobutyl-[3-(5-methyl-furan-2-ylmethylene)-2-oxo-2,3-dihydro-1H-indole-5-sulfonyl]-amino}-2-phosphonooxy-propyl)-carbamic acid hexahydro-furo[2,3-b]furan-3-yl ester] |  |  |  |  |  |  |  |  | 302 | 
10 | CC(C)CN(CC(O)C(Cc1ccccc1)NC(=O)OC1COC2OCCC12)S(=O)(=O)c1ccc2c(c1)C(=Cc1ccc(C(=O)O)cc1)C(=O)N2 (stereo not shown) [Compound 20, 4-(5-{[3-(Hexahydro-furo[2,3-b]furan-3-yloxycarbonylamino)-2-hydroxy-4-phenyl-butyl]-isobutyl-sulfamoyl}-2-oxo-1,2-dihydro-indol-3-ylidenemethyl)-benzoic acid] |  |  |  |  |  |  |  |  | 891 | 

Source: patent US7199148B2, “Broadspectrum substituted oxindole sulfonamide HIV protease inhibitors” (priority 2002, dated 2007)
